Assay results published in PubChem BioAssay (NCI).
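Dose response: 5 concentrations. Exposure: 48 h. Format: 96-well plates. Endpoint: linear interpolation; highest concentration if not reached. GI50 = concentration required for 50% inhibition of growth. At the TGI there is no net growth.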

Tests used:
Experiment in all cases: DTP human tumour cell line panel, 48 h
SK-MEL-5 melanoma = test system: SK-MEL-5 melanoma
HS 578T breast = test system: HS 578T breast
TK-10 renal = test system: TK-10 renal
786-0 renal = test system: 786-0 renal
A498 renal = test system: A498 renal
HCC-2998 colon = test system: HCC-2998 colon
NCI/ADR-RES ovarian = test system: NCI/ADR-RES ovarian
KM12 colon = test system: KM12 colon
SK-MEL-2 melanoma = test system: SK-MEL-2 melanoma
OVCAR-3 ovarian = test system: OVCAR-3 ovarian
OVCAR-5 ovarian = test system: OVCAR-5 ovarian
T-47D breast = test system: T-47D breast
SK-OV-3 ovarian = test system: SK-OV-3 ovarian
RPMI-8226 leukemia = test system: RPMI-8226 leukemia
OVCAR-4 ovarian = test system: OVCAR-4 ovarian
U251 CNS = test system: U251 CNS
MDA-MB-435 = test system: MDA-MB-435
HOP-92 NSCLC = test system: HOP-92 NSCLC
HT29 colon = test system: HT29 colon
NCI-H23 lung = test system: NCI-H23 lung
NCI-H522 lung = test system: NCI-H522 lung
CCRF-CEM leukemia = test system: CCRF-CEM leukemia
IGROV1 ovarian = test system: IGROV1 ovarian
HCT-15 colon = test system: HCT-15 colon
M14 melanoma = test system: M14 melanoma
DU-145 prostate = test system: DU-145 prostate
HOP-62 NSCLC = test system: HOP-62 NSCLC
UACC-257 melanoma = test system: UACC-257 melanoma
HCT-116 colon = test system: HCT-116 colon
EKVX NSCLC = test system: EKVX NSCLC
SNB-75 CNS = test system: SNB-75 CNS
SF-295 CNS = test system: SF-295 CNS
SK-MEL-28 melanoma = test system: SK-MEL-28 melanoma
NCI-H226 lung = test system: NCI-H226 lung
RXF 393 renal = test system: RXF 393 renal
SNB-19 CNS = test system: SNB-19 CNS
CAKI-1 renal = test system: CAKI-1 renal
BT-549 breast = test system: BT-549 breast
LOX IMVI melanoma = test system: LOX IMVI melanoma
MDA-MB-231 breast = test system: MDA-MB-231 breast
PC-3 prostate = test system: PC-3 prostate
SF-268 CNS = test system: SF-268 CNS
MALME-3M melanoma = test system: MALME-3M melanoma
ACHN renal = test system: ACHN renal
NCI-H460 lung = test system: NCI-H460 lung
MCF7 breast = test system: MCF7 breast
A549 NSCLC = test system: A549 NSCLC
UACC-62 melanoma = test system: UACC-62 melanoma
K-562 leukemia = test system: K-562 leukemia
OVCAR-8 ovarian = test system: OVCAR-8 ovarian
HL-60(TB) leukemia = test system: HL-60(TB) leukemia
SW-620 colon = test system: SW-620 colon
SF-539 CNS = test system: SF-539 CNS
COLO 205 colon = test system: COLO 205 colon
UO-31 renal = test system: UO-31 renal
SN12C renal = test system: SN12C renal
MOLT-4 leukemia = test system: MOLT-4 leukemia
SR leukemia = test system: SR leukemia

In the case of O=[N+]([O-])c1cc(Cl)ccc1S(=O)(=O)c1ccccc1, the TGI (SK-MEL-5 melanoma) is reported as over 100 µM, the TGI (HS 578T breast) is reported as over 100 µM and the TGI (TK-10 renal) is reported as over 100 µM. It also gave a TGI (786-0 renal) of over 100 µM, a TGI (A498 renal) of over 100 µM and a TGI (HCC-2998 colon) of over 100 µM. The TGI (NCI/ADR-RES ovarian) was over 100 µM, the TGI (KM12 colon) was over 100 µM and the TGI (SK-MEL-2 melanoma) was 53.8 µM. For the same compound, the TGI (OVCAR-3 ovarian) was over 100 µM, the TGI (OVCAR-5 ovarian) was over 100 µM and the TGI (T-47D breast) was over 100 µM. The TGI (SK-OV-3 ovarian) was over 100 µM, the TGI (RPMI-8226 leukemia) was over 100 µM and the TGI (OVCAR-4 ovarian) was over 100 µM. It also gave a TGI (U251 CNS) of over 100 µM, a TGI (MDA-MB-435) of over 100 µM and a TGI (HOP-92 NSCLC) of over 100 µM. For the same compound, the TGI (HT29 colon) was over 100 µM, the TGI (NCI-H23 lung) was over 100 µM and the TGI (NCI-H522 lung) was over 100 µM. For the same compound, the TGI (CCRF-CEM leukemia) was over 100 µM, the TGI (IGROV1 ovarian) was over 100 µM and the TGI (HCT-15 colon) was over 100 µM. The TGI (M14 melanoma) was over 100 µM, the TGI (DU-145 prostate) was over 100 µM and the TGI (HOP-62 NSCLC) was over 100 µM. The TGI (UACC-257 melanoma) was over 100 µM, the TGI (HCT-116 colon) was over 100 µM and the TGI (EKVX NSCLC) was over 100 µM. For the same compound, the TGI (SNB-75 CNS) was over 100 µM, the TGI (SF-295 CNS) was over 100 µM and the TGI (SK-MEL-28 melanoma) was over 100 µM. For the same compound, the TGI (NCI-H226 lung) was over 100 µM, the TGI (RXF 393 renal) was over 100 µM and the TGI (SNB-19 CNS) was over 100 µM. It also gave a TGI (CAKI-1 renal) of over 100 µM, a TGI (BT-549 breast) of over 100 µM and a TGI (LOX IMVI melanoma) of over 100 µM. It also gave a TGI (MDA-MB-231 breast) of over 100 µM, a TGI (PC-3 prostate) of over 100 µM and a TGI (SF-268 CNS) of over 100 µM. It also gave a TGI (MALME-3M melanoma) of over 100 µM, a TGI (ACHN renal) of over 100 µM and a TGI (NCI-H460 lung) of over 100 µM. The TGI (MCF7 breast) was over 100 µM, the TGI (A549 NSCLC) was over 100 µM and the TGI (UACC-62 melanoma) was over 100 µM. For the same compound, the TGI (K-562 leukemia) was over 100 µM, the TGI (OVCAR-8 ovarian) was over 100 µM and the TGI (HL-60(TB) leukemia) was over 100 µM. It also gave a TGI (SW-620 colon) of over 100 µM, a TGI (SF-539 CNS) of over 100 µM and a TGI (COLO 205 colon) of over 100 µM. It also gave a TGI (UO-31 renal) of over 100 µM, a TGI (SN12C renal) of over 100 µM and a TGI (MOLT-4 leukemia) of over 100 µM.
In the case of COc1ccc2cc(C(=O)/C=C/c3ccc(OC)c(OC)c3)ccc2c1, the GI50 (SK-MEL-5 melanoma) is reported as 2820 nM, the TGI (SK-MEL-5 melanoma) is reported as 16.6 µM and the GI50 (TK-10 renal) is reported as 53.1 µM. The TGI (TK-10 renal) was over 100 µM, the GI50 (786-0 renal) was 18.8 µM and the TGI (786-0 renal) was 35.4 µM. For the same compound, the GI50 (KM12 colon) was 4.82 µM, the TGI (KM12 colon) was 32.1 µM and the GI50 (OVCAR-3 ovarian) was 14.8 µM. For the same compound, the TGI (OVCAR-3 ovarian) was over 100 µM, the GI50 (T-47D breast) was 43.4 µM and the TGI (T-47D breast) was over 100 µM. For the same compound, the GI50 (SK-OV-3 ovarian) was 32.4 µM, the TGI (SK-OV-3 ovarian) was over 100 µM and the GI50 (RPMI-8226 leukemia) was 4.09 µM. It also gave a TGI (RPMI-8226 leukemia) of 20.3 µM, a GI50 (U251 CNS) of 11.8 µM and a TGI (U251 CNS) of 58.8 µM. The GI50 (MDA-MB-435) was 5.59 µM, the TGI (MDA-MB-435) was 43.4 µM and the GI50 (HOP-92 NSCLC) was 13.2 µM. The TGI (HOP-92 NSCLC) was 80.3 µM, the GI50 (HT29 colon) was 11.9 µM and the TGI (HT29 colon) was 76.4 µM. It also gave a GI50 (IGROV1 ovarian) of 10.5 µM, a TGI (IGROV1 ovarian) of 78.2 µM and a GI50 (HCT-15 colon) of 3.11 µM. It also gave a TGI (HCT-15 colon) of over 100 µM, a GI50 (M14 melanoma) of 11.2 µM and a TGI (M14 melanoma) of 25.7 µM. For the same compound, the GI50 (DU-145 prostate) was 15.5 µM, the TGI (DU-145 prostate) was 80.1 µM and the GI50 (HOP-62 NSCLC) was 18 µM. The TGI (HOP-62 NSCLC) was 41.6 µM, the GI50 (SR leukemia) was 2040 nM and the TGI (SR leukemia) was 6.16 µM. It also gave a GI50 (HCT-116 colon) of 2690 nM, a TGI (HCT-116 colon) of 10.3 µM and a GI50 (EKVX NSCLC) of 22 µM. It also gave a TGI (EKVX NSCLC) of 68.4 µM, a GI50 (SF-295 CNS) of 35.6 µM and a TGI (SF-295 CNS) of over 100 µM. It also gave a GI50 (SK-MEL-28 melanoma) of 33.7 µM, a TGI (SK-MEL-28 melanoma) of 98.9 µM and a GI50 (SNB-19 CNS) of 27.2 µM. It also gave a TGI (SNB-19 CNS) of 80 µM, a GI50 (CAKI-1 renal) of 21 µM and a TGI (CAKI-1 renal) of 97.6 µM. It also gave a GI50 (BT-549 breast) of 21.1 µM, a TGI (BT-549 breast) of 68.7 µM and a GI50 (LOX IMVI melanoma) of 3.38 µM. The TGI (LOX IMVI melanoma) was over 100 µM, the GI50 (MDA-MB-231 breast) was 4.75 µM and the TGI (MDA-MB-231 breast) was 42.8 µM. The GI50 (PC-3 prostate) was 20.2 µM, the TGI (PC-3 prostate) was over 100 µM and the GI50 (SF-268 CNS) was 19.2 µM. For the same compound, the TGI (SF-268 CNS) was 55.1 µM, the GI50 (MALME-3M melanoma) was over 100 µM and the TGI (MALME-3M melanoma) was over 100 µM. For the same compound, the GI50 (ACHN renal) was 14.5 µM, the TGI (ACHN renal) was 31.2 µM and the GI50 (NCI-H460 lung) was 7.38 µM. The TGI (NCI-H460 lung) was over 100 µM, the GI50 (MCF7 breast) was 1430 nM and the TGI (MCF7 breast) was 7.33 µM. For the same compound, the GI50 (A549 NSCLC) was 4.29 µM, the TGI (A549 NSCLC) was 30.3 µM and the GI50 (UACC-62 melanoma) was 16.2 µM. For the same compound, the TGI (UACC-62 melanoma) was 39.2 µM, the GI50 (K-562 leukemia) was 5 µM and the TGI (K-562 leukemia) was 94.9 µM. The GI50 (OVCAR-8 ovarian) was 14 µM, the TGI (OVCAR-8 ovarian) was 49.7 µM and the GI50 (HL-60(TB) leukemia) was 2310 nM. It also gave a TGI (HL-60(TB) leukemia) of 25 µM, a GI50 (SW-620 colon) of 4.21 µM and a TGI (SW-620 colon) of 27.1 µM. It also gave a GI50 (SF-539 CNS) of 3.77 µM, a TGI (SF-539 CNS) of 16.3 µM and a GI50 (COLO 205 colon) of 30.7 µM. It also gave a TGI (COLO 205 colon) of 73.5 µM, a GI50 (UO-31 renal) of 23.3 µM and a TGI (UO-31 renal) of 49.3 µM. For the same compound, the GI50 (SN12C renal) was 13.5 µM, the TGI (SN12C renal) was 32.6 µM and the GI50 (MOLT-4 leukemia) was 5.97 µM. It also gave a TGI (MOLT-4 leukemia) of over 100 µM.
